Measurements: PubChem BioAssay AID2060503 (Molecular Pharmacology Branch, DTP, NCI, 2025)
Where “and” joins values, the source holds several entries; their conditions need not be identical. Equal entries are not always repeated. Each block holds one compound with its values, some of them ahead of it.

Test system: 817829-284-R-J1-PDC complex spheroids, viability
Assay: Anticancer human tumor 817829-284-R-J1-PDC patient-derived colon adenocarcinoma cell line growth inhibition [GQUAD]
Conditions: for viability, T/C: stronger effect = lower value
Text: DNA G-quadruplex Stabilizer Agents in Combinations in Complex Spheroids
A high-throughput screen of multi-cell type tumor spheroids was designed to identify active combinations of DNA G-quadruplex stabilizer agents and targeted small molecules. Complex spheroids include a stromal component modeled by human endothelial cells (HUVEC) and fibroblasts modeled by human mesenchymal stem cells (MSCs). The concentration ranges selected for each drug and investigational agent were based upon clinically achievable concentrations if the clinical Cmax of the agent was known.
Compounds. The drugs and investigational agents: pidnarulex (CX-5461; NSC782164), APTO-253 (NSC789042), BRACO-19 (NSC847499), peposertib (NSC802822), ceralasertib (NSC780249), elimusertib (NSC800525), camonsertib (NSC841442), AZD-1390 (NSC803789), olaparib (NSC753686), talazoparib (NSC767125), ART-558 (NSC835418), sotorasib (NSC818433), MRTX-1133 (NSC836407), SN-38 (NSC673596), topotecan (NSC609699), etoposide (NSC141540), doxorubicin (NSC123127), gemcitabine (NSC613327), 5-fluorouracil (NSC19893), paclitaxel (NSC125973), vemurafenib (NSC761431), panobinostat (NSC761190), R-306465 (JNJ-16241199; NSC773264), adavosertib (NSC754352), TP-3654 (NSC805149), carboplatin (NSC241240), KSQ-4279 (NSC840948), and staurosporine (NSC755774) were obtained from the National Cancer Institute (NCI) Developmental Therapeutics Program Chemical Repository (34). The FDA-approved anticancer drug set is available from the NCI Developmental Therapeutics Program. […] The stock solutions were prepared in dimethyl sulfoxide (DMSO, Sigma-Aldrich, St. Louis, MO, cat. D2650) at 800-fold the tested concentration and stored at -70 degrees C prior to their use. All drugs and investigational agents were tested over a range starting from a high concentration at or near the clinical Cmax and decreasing in half-log increments. If the clinical Cmax for an agent had not been determined, the highest concentration tested was 10 microM.
2.3 Cell Culture. All cells were maintained in an incubator at 37 degrees C and 5% CO2 with 95% humidity. The PDC lines were cultured according to standard operating procedures established by the NCI PDMR. All PDCs were thawed and cultured in Matrigel-coated flasks prepared with a working solution of 1X Ham's F-12 nutrient mix, without supplementation (Invitrogen, cat. 11765054), 100 U/mL penicillin-streptomycin (Invitrogen, cat. 15140122), and 2.5% Matrigel (Corning Inc., cat. 354248) for the first three passages. The 857933-349-R-J2-PDC line was cultured in 6C/Colon 1B media, which includes advanced DMEM/F-12 (Thermo Fisher Scientific, cat. 12634028), 10 mM HEPES (Thermo Fisher Scientific, cat. 15630080), 1X GlutaMAX supplement (Thermo Fisher Scientific, cat. 35050061), 0.1 mg/mL primocin (InvivoGen, cat. ant-pm-2), 10% defined fetal bovine serum, heat inactivated (HyClone Laboratories Inc., cat. SH30070.03HI), 50% L-WRN conditioned media (ATCC, cat. CRL-3276), 1.25 mM N-Acetyl-L-cysteine (Sigma-Aldrich, cat. A9165), 10 mM nicotinamide (Sigma-Aldrich, cat. N0636), 1X B-27 supplement (Thermo Fisher Scientific, cat. 17504044), 1X N-2 supplement (Thermo Fisher Scientific, cat. 17502048), 10 microM Y-27632 dihydrochloride (Tocris Bioscience, cat. 1254), and 50 ng/mL human EGF recombinant protein (Thermo Fisher Scientific, cat. PHG0311). The 485176-168-R4-J1-PDC line was cultured in Panc media, which includes all 6C/Colon 1B media components plus 100 ng/mL human FGF-10 (Thermo Fisher Scientific, cat. 100-26), 500 nM SB-431542 (Selleckchem, cat. S1067), and gastrin (Tocris, cat. 3006).
[…]

[1] = compound alone, run of 02/20/2024
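Further: spheroids exposed to agents for 7 days before readout.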
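Wherever viability, T/C is given: percent viability relative to DMSO vehicle control taken as 100%.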

IC50 (curve of compound): 159 nM and 166 nM and 230 nM
SMILES: COc1cc(C2c3cc4c(cc3C(OC3OC5COC(C)OC5C(O)C3O)C3COC(=O)C23)OCO4)cc(OC)c1O (stereo not drawn)
viability, T/C (compound 0.0316 µM): 115% and 98.4% and 91% | viability, T/C (compound 0.1 µM): 62% and 67.7% and 92.4% | viability, T/C (compound 0.316 µM): 29.3% and 26.7% and 34.1% | viability, T/C (compound 1 µM): 26.2% and 28.1% and 42.2% | viability, T/C (compound 3.16 µM): 22.6% and 26.7% and 29.9% | viability, T/C (compound 10 µM): 10.5% and 9.2% and 10.2%

IC50 (curve of compound): > 10000 nM and 6030 nM
SMILES: COc1ccc([C@@H](O)c2cc(-c3ncnc4cc(N5CCOCC5)ccc34)c(F)cc2Cl)nn1
viability, T/C (compound 0.0316 µM): 103% and 96.1% and 90.7% | viability, T/C (compound 0.1 µM): 90.9% and 95.3% and 105% | viability, T/C (compound 0.316 µM): 106% and 104% and 100% | viability, T/C (compound 1 µM): 80.6% and 84.1% and 83.6% | viability, T/C (compound 3.16 µM): 84.3% and 82.3% and 64.7% | viability, T/C (compound 10 µM): 53.4% and 67.6% and 39.1%

IC50 (curve of compound): 84.7 nM and 99.1 nM and 82.1 nM
SMILES: COc1cccc2c1C(=O)c1c(O)c3c(c(O)c1C2=O)CC(O)(C(=O)CO)CC3OC1CC(N)C(O)C(C)O1 (stereo not drawn)
viability, T/C (compound 0.0316 µM): 100% and 82% and 106% | viability, T/C (compound 0.1 µM): 32.7% and 42.4% and 30.9% | viability, T/C (compound 0.316 µM): 30.1% and 39% and 26.2% | viability, T/C (compound 1 µM): 9.58% and 10.5% and 8.06% | viability, T/C (compound 3.16 µM): 0.57% and 0.58% and 0.61% | viability, T/C (compound 10 µM): 0.32% and 0.4% and 0.19%

IC50 (curve of compound): > 10000 nM
SMILES: COc1ncnc(C2CC2)c1-c1ncc2cnn(Cc3ccc(-c4nc(C(F)(F)F)cn4C(C)C)cc3)c2n1
viability, T/C (compound 0.0316 µM): 96.6% and 97.8% and 103% | viability, T/C (compound 0.1 µM): 97.4% and 111% and 113% | viability, T/C (compound 0.316 µM): 99.2% and 107% and 110% | viability, T/C (compound 1 µM): 84.8% and 117% and 106% | viability, T/C (compound 3.16 µM): 102% and 106% and 111% | viability, T/C (compound 10 µM): 116% and 114% and 115%

IC50 [1]: 3.3 µM [middle of 8 runs]
SMILES: Cc1[nH]c2ccc(F)cc2c1-c1nc2c3cccnc3c3ncccc3c2[nH]1
viability, T/C (compound 0.1 µM): 103% [middle of 12 runs] | viability, T/C (compound 0.316 µM): 106% [middle of 12 runs] | viability, T/C (compound 1 µM): 99.8% [middle of 12 runs]

IC50 (curve of compound): 45.8 nM and 48.8 nM and 33.7 nM
SMILES: Cc1[nH]c2ccccc2c1CCNCc1ccc(/C=C/C(=O)NO)cc1
viability, T/C (compound 0.000999 µM): 110% and 93.9% and 106% | viability, T/C (compound 0.00316 µM): 101% and 100% and 86.5% | viability, T/C (compound 0.00999 µM): 127% and 124% and 113% | viability, T/C (compound 0.0316 µM): 73% and 78.2% and 52.8% | viability, T/C (compound 0.0999 µM): 3.77% and 5.53% and 6.09% | viability, T/C (compound 0.316 µM): 0.17% and 0.23% and 0.08%

IC50 (curve of compound): > 10000 nM
SMILES: Cc1cccc(N(C)C(=O)C2C(O)CCN2c2nc(C)cc(C(F)(F)F)c2C#N)c1 (stereo not drawn)
viability, T/C (compound 0.0316 µM): 94.3% and 102% and 95.3% | viability, T/C (compound 0.1 µM): 97.8% and 81.6% and 93.5% | viability, T/C (compound 0.316 µM): 92.5% and 107% and 96.8% | viability, T/C (compound 1 µM): 88.1% and 99% and 82.6% | viability, T/C (compound 3.16 µM): 92.4% and 88.4% and 96.7% | viability, T/C (compound 10 µM): 96.7% and 83.4% and 98.1%

IC50 [1]: 85.8 nM [middle of 11 runs]
SMILES: Cc1cnc(CNC(=O)c2c(=O)c3ccc(N4CCCN(C)CC4)nc3n3c2sc2ccccc23)cn1
viability, T/C (compound 0.0316 µM): 90.4% [middle of 12 runs] | viability, T/C (compound 0.1 µM): 39.5% [middle of 12 runs] | viability, T/C (compound 0.316 µM): 29.2% [middle of 12 runs] | viability, T/C (compound 1 µM): 23.6% [middle of 12 runs] | viability, T/C (compound 3.16 µM): 15.9% [middle of 12 runs] | viability, T/C (compound 10 µM): 0.15% [middle of 8 runs]

IC50 (curve of compound): > 316 nM
SMILES: Cn1ncnc1[C@H]1c2n[nH]c(=O)c3cc(F)cc(c23)N[C@@H]1c1ccc(F)cc1
viability, T/C (compound 0.000999 µM): 111% and 90.3% and 92.1% | viability, T/C (compound 0.00316 µM): 86.5% and 83.5% and 92.8% | viability, T/C (compound 0.00999 µM): 106% and 112% and 101% | viability, T/C (compound 0.0316 µM): 91.3% and 82.8% and 82% | viability, T/C (compound 0.0999 µM): 83.5% and 82.1% and 84% | viability, T/C (compound 0.316 µM): 72.2% and 75.2% and 66.5%

IC50 (curve of compound): < 31.6 nM
SMILES: Nc1ccn(C2OC(CO)C(O)C2(F)F)c(=O)n1 (stereo not drawn)
viability, T/C (compound 0.0316 µM): 24.6% and 9.45% and 15.3% | viability, T/C (compound 0.1 µM): 5.55% and 8% and 4.56% | viability, T/C (compound 0.316 µM): 7.44% and 8.2% and 6.55% | viability, T/C (compound 1 µM): 5.74% and 7.67% and 5.48% | viability, T/C (compound 3.16 µM): 6.14% and 6.82% and 5.88% | viability, T/C (compound 10 µM): 3.68% and 3.93% and 3.72%

IC50 (curve of compound): 67.9 nM and 186 nM and 121 nM
SMILES: O=C(NO)c1cnc(N2CCN(S(=O)(=O)c3ccc4ccccc4c3)CC2)nc1
viability, T/C (compound 0.0316 µM): 114% and 111% and 117% | viability, T/C (compound 0.1 µM): 17.6% and 102% and 59% | viability, T/C (compound 0.316 µM): 0.33% and 5.46% and 5.25% | viability, T/C (compound 1 µM): 0.17% and 0.29% and 0.13% | viability, T/C (compound 3.16 µM): 0.1% and 0.26% and 0.04% | viability, T/C (compound 10 µM): 0.15% and 0.25% and 0.07%

IC50 (curve of compound): > 10000 nM
SMILES: O=C(c1cc(Cc2n[nH]c(=O)c3ccccc23)ccc1F)N1CCN(C(=O)C2CC2)CC1
viability, T/C (compound 0.0316 µM): 113% and 106% and 116% | viability, T/C (compound 0.1 µM): 87.2% and 96.7% and 103% | viability, T/C (compound 0.316 µM): 103% and 99% and 90.6% | viability, T/C (compound 1 µM): 91% and 94.4% and 89.3% | viability, T/C (compound 3.16 µM): 89.1% and 97.4% and 95.1% | viability, T/C (compound 10 µM): 57.6% and 60.7% and 49%

IC50 (curve of compound): 1540 nM and 1750 nM and 2140 nM
SMILES: O=c1[nH]cc(F)c(=O)[nH]1
viability, T/C (compound 0.0316 µM): 97.6% and 102% and 99.2% | viability, T/C (compound 0.1 µM): 94.3% and 91.8% and 102% | viability, T/C (compound 0.316 µM): 127% and 111% and 106% | viability, T/C (compound 1 µM): 59.1% and 63.2% and 70.3% | viability, T/C (compound 3.16 µM): 39.4% (2×) and 42.5% | viability, T/C (compound 10 µM): 30.5% and 32.8% and 30.7%
